# Assay results reported in patent publication US8399482B2, “6-substituted isoquinolines and isoquinolinones” (Sanofi, priority 2008, dated 2013).
# Legend:
# Type in all cases: biochemical
# [1] = target: T1, recombinant human PKG1-beta (Homo sapiens, UniProt Q13976); assay: Determination of Protein Kinase G inhibition (selectivity); details: from IC50 values
# T1 construct: PKG1-beta (full-length, with N-terminal His-tag); His-tag (N); purchased Millipore GmbH, Schwalbach, Germany
# T1 sequence (Q13976 1-686 isoform Q13976-2): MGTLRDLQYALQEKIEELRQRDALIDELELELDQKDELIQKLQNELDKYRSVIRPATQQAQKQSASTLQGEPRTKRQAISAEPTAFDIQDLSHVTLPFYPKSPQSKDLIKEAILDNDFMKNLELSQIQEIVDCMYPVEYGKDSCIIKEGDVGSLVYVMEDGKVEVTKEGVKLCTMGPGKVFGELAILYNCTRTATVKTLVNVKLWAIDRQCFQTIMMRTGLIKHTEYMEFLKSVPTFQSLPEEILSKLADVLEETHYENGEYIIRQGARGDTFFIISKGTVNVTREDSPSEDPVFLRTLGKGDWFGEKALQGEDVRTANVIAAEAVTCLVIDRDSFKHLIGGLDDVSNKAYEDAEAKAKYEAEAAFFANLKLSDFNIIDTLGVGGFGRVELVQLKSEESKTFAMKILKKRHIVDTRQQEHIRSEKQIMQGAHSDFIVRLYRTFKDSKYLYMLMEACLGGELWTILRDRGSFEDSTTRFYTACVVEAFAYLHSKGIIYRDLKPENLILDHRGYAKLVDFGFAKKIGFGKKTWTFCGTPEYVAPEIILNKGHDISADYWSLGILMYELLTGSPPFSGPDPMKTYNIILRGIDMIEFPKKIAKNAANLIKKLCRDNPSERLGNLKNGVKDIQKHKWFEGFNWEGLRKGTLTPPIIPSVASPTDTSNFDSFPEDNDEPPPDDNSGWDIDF
# Procedure: (§1) 2) Determination of Protein Kinase a and Protein Kinase G Inhibition
# (§2) To measure PKA and PKG1-beta inhibition, IC50 values were determined according to the following protocol:
# (§3) Active recombinant human PKG1-beta (full-length, with N-terminal His-tag) was purchased from Millipore GmbH, Schwalbach, Germany. Active recombinant human PKA (residues 1-351, N-terminal His-tag) was obtained from Invitrogen, Karlsruhe, Germany. The peptide substrate, Fluorescein-[…]-COOH, was obtained from JPT Peptide Technologies, Berlin, Germany. Adenosine-5′-triphosphate (ATP), bovine serum albumine (BSA), dimethylsulphoxide (DMSO), 4-(2-Hydroxyethyl)piperazine-1-ethanesulfonic acid (Hepes), Brij-35, dithiothreitol (DTT) and Pluronic F-68 were purchased from Sigma-Aldrich, Munich, Germany. Tris(hydroxymethyl)-aminomethane (Tris), magnesium chloride, NaOH, 1M HCl and EDTA were obtained from Merck Biosciences, Darmstadt, Germany. “Complete” protease inhibitor was from Roche Diagnostics, Mannheim, Germany. Test compounds were diluted to the appropriate concentrations in buffer 1 (25 mM Tris-HCl, pH 7.4, 5 mM MgCl2, 2 mM DTT, 0.02% (w/v) BSA, 0.01% Pluronic F-68 and 3% DMSO). PKG1-beta and PKA were diluted to concentrations of 150 ng/ml and 30 ng/ml, respectively, in buffer 2. The peptide substrate and ATP were diluted to concentrations of 3 μM and 120 μM, respectively, in the buffer 2. Two μl of the compound solution were mixed with 2 μl of the diluted enzyme in a 384-well small volume microtiter plate (Greiner, Bio-One, Frickenhausen, Germany), and the kinase reaction was initiated by addition of 2 μl of the solution containing peptide substrate and ATP. After 60 min incubation at 32° C., the reaction was stopped by addition of 20 μl of a solution containing 100 mM Hepes-NaOH, pH 7.4, 0.015% (v/v) Brij-35, 45 mM EDTA and 0.227% chip coating reagent 1 (Caliper Lifescience Inc, Hopkinton, Mass.). Phosphorylation of the substrate peptide was then detected on a Caliper 3000 instrument essentially as described by Pommereau et al (J. Biomol. Screening 9(5), 409-416, 2004). Separation conditions were as follows: Pressure −1.3 psi, upstream voltage −1562 V, downstream voltage −500 V, sample sip time 200 ms, Positive controls (buffer 1 instead of compound) and negative controls (buffer 1 instead of compound and buffer 2 instead of kinase solution) were run in parallel on each plate. The following products/compounds were tested in said assay by using the respective form (salt or free base) obtained as in the examples described above and the following activities were measured.
# [2] = target: T2, human recombinant ROCK II (Homo sapiens, UniProt O75116); assay: Determination of Rho kinase inhibition (ROCK II, Caliper peptide phosphorylation assay); details: respective form (salt or free base) as obtained in the examples, 60 min at 32° C.
# T2 construct: recombinant human ROCK-II residues 11-552; His6 (N); purchased Millipore GmbH, Schwalbach, Germany
# In short: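 Enzyme: active N-terminal His6-tagged recombinant human ROCK-II, residues 11-552. Substrate: a fluorescein-labelled peptide, with ATP. IC50 values were determined.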
# recombinant human PKA = target: T3, recombinant human PKA (Homo sapiens, UniProt P17612); assay: Determination of Protein Kinase A inhibition (selectivity); details: from IC50 values
# T3 construct: recombinant human PKA (residues 1-351, N-terminal His-tag); His-tag (N); purchased Invitrogen, Karlsruhe, Germany
# Procedure: as §1, §2, §3
# T2 sequence (O75116 11-552): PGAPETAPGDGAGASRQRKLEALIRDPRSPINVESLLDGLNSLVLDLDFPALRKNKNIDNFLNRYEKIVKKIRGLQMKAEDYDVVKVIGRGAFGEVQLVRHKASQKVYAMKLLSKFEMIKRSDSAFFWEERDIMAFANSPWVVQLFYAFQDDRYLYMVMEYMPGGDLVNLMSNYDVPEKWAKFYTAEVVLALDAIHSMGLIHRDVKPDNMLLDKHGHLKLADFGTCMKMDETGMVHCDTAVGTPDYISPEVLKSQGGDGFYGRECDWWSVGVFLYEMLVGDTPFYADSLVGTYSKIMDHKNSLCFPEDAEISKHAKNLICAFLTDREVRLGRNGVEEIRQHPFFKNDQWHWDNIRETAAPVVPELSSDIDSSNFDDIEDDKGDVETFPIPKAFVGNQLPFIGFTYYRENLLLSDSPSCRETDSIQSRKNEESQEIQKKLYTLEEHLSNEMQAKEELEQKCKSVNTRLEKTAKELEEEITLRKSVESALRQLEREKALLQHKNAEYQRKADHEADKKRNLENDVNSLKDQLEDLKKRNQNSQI
SMILES,Selectivity against PKG [1] [fold],IC50 [2] [nM],Selectivity against PKA (recombinant human PKA) [fold],pIC50 [2]
"CCC(N)C1(CC(C)C)CCC(Oc2cc3cc[nH]c(=O)c3cc2Cl)CC1 (single isomer, unassigned) [Example 28, 6-[4-(1-Amino-propyl)-4-isobutyl-cyclohexyloxy]-7-chloro-2H-isoquinolin-1-one]",>10,100 to 1000,>10,–
"CCC(N)C1(Cc2ccccc2)CCC(Oc2cc3cc[nH]c(=O)c3cc2Cl)CC1 (single isomer, unassigned) [Example 30, 6-[4-(1-Amino-propyl)-4-benzyl-cyclohexyloxy]-7-chloro-2H-isoquinolin-1-one]",>10,10 to 100,>300,–
"CC(C)C1(C(N)c2cncs2)CCC(Oc2cc3cc[nH]c(=O)c3cc2Cl)CC1 (single isomer, unassigned) [Example 47, 6-[4-(Amino-thiazol-5-yl-methyl)-4-isopropyl-cyclohexyl-oxy]-7-chloro-2H-isoquinolin-1-one]",>300,10 to 100,>300,–
"CCC(N)C1(CC)CCC(Oc2cc3cc[nH]c(=O)c3cc2Cl)CC1 (single isomer, unassigned) [Example 108]",>10,–,>1000,+++++++ (8.0 ≦ pIC50)
"CCCC(N)[C@]1(C(C)C)CC[C@H](Oc2cc3cc[nH]c(=O)c3cc2Cl)CC1 (stereo partly drawn) [Example 35, cis-6-[4-(1-Amino-butyl)-4-isopropyl-cyclohexyloxy]-7-chloro-2H-isoquinolin-1-one]",>10,10 to 100,>300,–
"CC[C@]1(C(C)N)CC[C@@H](Oc2cc3cc[nH]c(=O)c3cc2C)CC1 (stereo partly drawn) [Example 37, cis-6-[4-(1-Amino-ethyl)-4-ethyl-cyclohexyloxy]-7-methyl-2H-isoquinolin-1-one]",>100,10 to 100,>300,–

# Next, values leading:
Selectivity against PKG [1] [fold],IC50 [2] [nM],Selectivity against PKA (recombinant human PKA) [fold],pIC50 [2],SMILES
>1000,10 to 100,>1000,–,"CCC(N)C1(C)CCC(Oc2cc3cc[nH]c(=O)c3cc2Cl)CC1 (single isomer, unassigned) [Example 27, 6-[4-(1-Amino-propyl)-4-methyl-cyclohexyloxy]-7-chloro-2H-isoquinolin-1-one]"
>1000,≤ 10,>1000,–,"CCC(N)C1(C(F)(F)F)CCC(Oc2cc3cc[nH]c(=O)c3cc2Cl)CC1 (single isomer, unassigned) [Example 103, 6-[4-(1-Amino-propyl)-4-trifluoromethyl-cyclohexyloxy]-7-chloro-2H-isoquinolin-1-one]"
>1000,≤ 10,>1000,–,"CCC(N)C1(C2CCOCC2)CCC(Oc2cc3cc[nH]c(=O)c3cc2Cl)CC1 (single isomer, unassigned) [Example 106]"
>1000,≤ 10,>1000,–,"CCC(N)C1(CC)CCC(Oc2cc3cc[nH]c(=O)c3cc2Cl)CC1 (single isomer, unassigned) [Example 107]"
>300,≤ 10,>1000,–,"CCC(N)[C@]1(CC)CC[C@H](Oc2cc3cc[nH]c(=O)c3cc2Cl)CC1 (stereo partly drawn) [Example 34, cis-6-[4-(1-Amino-propyl)-4-ethyl-cyclohexyloxy]-7-chloro-2H-isoquinolin-1-one]"
>300,≤ 10,>1000,–,"CCCC[C@]1(C(N)CC)CC[C@@H](Oc2cc3cc[nH]c(=O)c3cc2Cl)CC1 (stereo partly drawn) [Example 38, cis-6-[4-(1-Amino-propyl)-4-butyl-cyclohexyloxy]-7-chloro-2H-isoquinolin-1-one]"
